Assay results reported in PMC6792352, “Limited Chemical Structural Diversity Found to Modulate Thyroid Hormone Receptor in the Tox21 Chemical Library” (Environmental Health Perspectives, 2019).
Structures can show the parent of a compound that is named as a salt.

assay: in vitro; details: rat, gh3-tre-luc cells, AC50 (uM) modified / 1000

Structure (SMILES) | CC50 at 24 h [µM]
CCCCOC(=O)c1ccc(N)cc1 [Butyl 4-aminobenzoate] | > 50
O=C(Oc1ccc(Br)cc1)N1CCN2CCC1CC2 [SSR180711] | 44
C=CCc1ccc(OC)c(OC)c1 [Methyleugenol] | > 90
C=COC(C)=O [Vinyl acetate] | > 90
C[C@@H]1C[C@H]2[C@@H]3C[C@H](F)C4=CC(=O)C=C[C@]4(C)[C@@]3(Cl)[C@@H](O)C[C@]2(C)[C@H]1C(=O)COC(=O)C(C)(C)C [Clocortolone pivalate] | > 50
COC(=O)[C@H](c1ccccc1Cl)N1CCc2sccc2C1 [Clopidogrel hydrogen sulfate] | > 50
OCCNCc1ccccc1 [N-Benzylethanolamine] | > 90
COc1ccc2c(c1)c1c3n2CCN(C)C3=NCC1 [Metralindole] | > 50
CC(C)(CCl)c1ccccc1 [Neophyl chloride] | > 90
CCCCc1nc2cccnc2n1Cc1ccc(-c2ccccc2-c2nnn[nH]2)cc1 [FR130739] | 55.3
OCCNCCO [Diethanolamine] | > 90
CN[C@H]1C[C@@H](N)[C@H](O)[C@@H](O[C@@H]2O[C@H](CO)[C@H](O)[C@@H]3OC4(O[C@H]23)O[C@H]([C@@H](N)CO)[C@H](O)[C@H](O)[C@H]4O)[C@@H]1O (stereo partly shown) [Hygromycin B] | > 50
O=C(OCCOCCOC(=O)c1ccccc1)c1ccccc1 [Diethylene glycol dibenzoate] | > 90
CCCCCCCCN1CCCC1=O [1-Octyl-2-pyrrolidone] | > 90
CC(C)c1nnc2ccc(-c3ocnc3-c3cc(F)ccc3F)cn12 [CP-863187] | > 90
Cc1c(F)c(F)c(COC(=O)[C@H]2[C@@H](/C=C(\Cl)C(F)(F)F)C2(C)C)c(F)c1F (racemic) [Tefluthrin] | > 90
Cc1ccccc1N=O [2-Nitrosotoluene] | > 90
CCOc1ccc(NC(=O)CC(C)O)cc1 (stereo not shown) [3-Hydroxy-4-butyrophenetidide] | > 90
CCCCCCOc1ccc(C(=N)N(CCCC)CCCC)c2ccccc12 [Bunamidine hydrochloride] | 5.23
CCCCC(CC)COC(C)=O (stereo not shown) [2-Ethylhexyl acetate] | > 90
CN(C)c1ccc(CCO)cc1 [p-N,N-Dimethylaminophenethanol] | > 90
CCOc1nc2cccc(C(=O)O)c2n1Cc1ccc(-c2ccccc2-c2nnn[nH]2)cc1 [Candesartan] | 34.4
C[C@@H](O[C@H]1OCCN(Cc2n[nH]c(=O)[nH]2)[C@H]1c1ccc(F)cc1)c1cc(C(F)(F)F)cc(C(F)(F)F)c1 [Aprepitant] | 11
COC(OC)C(C)c1ccccc1 (stereo not shown) [2-Phenylpropionaldehyde dimethyl acetal] | > 90
CC1(C)CCC(C)(C)c2cc(C(=O)Nc3ccc(C(=O)O)cc3)ccc21 [AM580] | 66.2

Structure (SMILES) | CC50 at 24 h [µM]
CCCCCCCCC(=O)OCC(C)OC(=O)CCCCCCCC (stereo not shown) [Propylene glycol dipelargonate] | > 100
CCN(CC)C(=O)/C(C#N)=C/c1cc(O)c(O)c([N+](=O)[O-])c1 [Entacapone] | > 50
Clc1ccc(C(Cl)(Cl)Cl)cn1 [2-Chloro-5-trichloromethylpyridine] | > 90
O=C1C=C2C=C[C@@H]3C[C@@]2(O1)[C@H]1CCCCN31 [Securinine] | 15.3
CCCCOC(=O)c1ccccc1 [Butyl benzoate] | > 90
C=C(C)C(=O)OCCCCCCCCCCOC(=O)C(=C)C [1,10-Decanediol dimethacrylate] | > 90
O=C(O)c1ccccc1-c1c2ccc(=O)cc-2oc2cc(O)ccc12 [Fluorescein sodium] | > 50
CCCN(C1CCN(C(=O)C2CCNCC2)CC1)[C@@H]1CCc2ccc(OC)cc2C1 [PharmaGSID_48509] | 69.1
C=CCSSCC=C [Diallyl disulfide] | > 90
CNc1c2c(nn1C)CCCC2 [Tetridamine] | > 50
CC(=O)SC[C@@H](C)C(=O)N1CCC[C@H]1C(=O)N[C@@H](Cc1ccccc1)C(=O)O [Alacepril] | > 50
CO[C@@H]1[C@@H](OC)[C@H](C)[C@@](O)(CC(=O)O)O[C@H]1[C@H](C)[C@H]1O[C@@]2(CC[C@@](C)([C@H]3CC[C@@](C)([C@@H]4O[C@@H]([C@H]5O[C@](C)(O)[C@H](C)C[C@@H]5C)C[C@@H]4O[C@@H]4C[C@H](OC)[C@@H](OC)[C@H](C)O4)O3)O2)C[C@H](O)[C@H]1C [Maduramicin ammonium] | 0.49
CC(C)c1cccc(C(C)C)c1 [1,3-Diisopropylbenzene] | > 90
Cc1ccc(C(C)C)cc1O [Isopropyl-o-cresol] | > 90
O=C(O)c1cc(Cl)cc(Cl)c1O [3,5-Dichlorosalicylic acid] | > 90
CC(C)c1ccc2cc(C(C)C)ccc2c1 [2,6-Diisopropylnaphthalene] | > 90
Nc1ncnc2c1ncn2[C@@H]1O[C@H](COP(=O)(O)OP(=O)(O)OP(=O)(O)O)[C@@H](O)[C@H]1O [Adenosine triphosphate] | > 50
CC1(C)CON(Cc2ccccc2Cl)C1=O [Clomazone] | > 90
O=C(O)c1cc(=O)[nH]c(=O)[nH]1 [Orotic acid] | > 90
O=c1[nH]sc2ccccc12 [1,2-Benzisothiazolin-3-one] | 5.86
O=C1c2c(O)cccc2Cc2cccc(O)c21 [Anthralin] | > 90
NS(=O)(=O)c1cc2c(cc1Cl)N=C(CSCc1ccccc1)NS2(=O)=O [Benzthiazide] | > 20
CCCCCC[C@@H](O)C/C=C\CCCCCCCC(=O)OCC(O)CO (stereo partly shown) [Glyceryl monoricinoleate] | > 90
CSC(=O)c1c(C(F)F)nc(C(F)(F)F)c(C(=O)SC)c1CC(C)C [Dithiopyr] | 57.6
COC(C)(C)OC [2,2-Dimethoxypropane] | > 90

Structure (SMILES) | CC50 at 24 h [µM]
OC[C@H]1O[C@@](CO)(O[C@H]2O[C@H](CO)[C@@H](O)[C@H](O)[C@H]2O)[C@@H](O)[C@@H]1O [Sucrose] | > 90
NC(=O)c1ccccc1C(N)=O [Phthalamide] | > 90
CC1(C)CCC(C)(C)c2cc(NC(=O)c3ccc(C(=O)O)cc3)ccc21 [Tamibarotene] | 15.4
CN(C1CCCCC1)C1CCCCC1 [N-Cyclohexyl-N-methylcyclohexanamine] | > 90
O=C(O)c1ccncc1 [Isonicotinic acid] | > 90
C=CC(=O)OCCN(C)C [2-(Dimethylamino)ethyl acrylate] | > 90
CC[C@H](NC(=O)c1cc(F)ccc1NS(=O)(=O)c1cccc2cccnc12)c1ccccc1 [AVE3295] | > 90
CC12CCC(C[N+](C)(CCC[N+](C)(C)C)C1)C2(C)C (stereo not shown) [Trimethidinium methyl sulfate] | > 50
CC(=O)Nc1ccc(S(=O)(=O)Nc2cc(C)on2)cc1 [N-Acetyl sulfamethoxazole] | > 50
CC(C)COC(=O)COc1ccc(Cl)cc1Cl [2,4-D-isobutyl] | > 90
CCCN(CCC)CCc1cccc2c1CC(=O)N2 [Ropinirole] | > 50
CN(C)CCC=C1c2ccccc2C=Cc2ccccc21 [Cyclobenzaprine hydrochloride] | 14.5
CC(C)=CCC/C(C)=C/CC/C(C)=C/CC/C=C(\C)CC/C=C(\C)CCC=C(C)C [(E)-Squalene] | > 50
CCCC(C)=O [2-Pentanone] | > 90
Clc1nc(Cl)c(Cl)c(Cl)c1Cl [Pentachloropyridine] | > 90
CC(C)c1cccc(O)c1 [3-Isopropylphenol] | > 100
FC(F)(F)C(F)(F)C(F)(F)C(F)(F)C(F)(F)C(F)(F)C(F)(F)C(F)(F)Br [1-Bromoheptadecafluorooctane] | > 50
CCCCCc1ccco1 [2-Pentylfuran] | > 60
Cc1occc1C(=O)Nc1ccc(C(=O)N2CCC(F)(F)/C(=C\C(=O)N3CCC(N4CCCCC4)CC3)c3ccccc32)cc1 [YM218] | 11.8
O=C(O)CNC(=O)c1ccccc1I [2-Iodohippuric acid] | > 50
CN[C@@H]1C[C@@H](c2ccc(Cl)c(Cl)c2)c2ccccc21 [Indatraline hydrochloride] | 10
c1ccc(CCNc2nc(-c3ccccc3)cs2)cc1 [Fanetizole] | > 50
COc1ccc(Cl)cc1C [4-Chloro-2-methylanisole] | > 100
COC(=O)CCC(=O)O [Monomethyl succinate] | > 90
Nc1nc(F)nc2c1ncn2[C@@H]1O[C@H](CO)[C@@H](O)[C@@H]1O [Fludarabine] | 52

same assay, conditions: rat, gh3-tre-luc cells, AC50 (uM) modified / 1000, Tox21_110001=Tox21_200015; viability, 1 nM T3 present, 24 h

Structure (SMILES) | CC50 at 24 h [µM]
N#CSCc1ccccc1 [Benzyl thiocyanate] | > 90

same assay, conditions: rat, gh3-tre-luc cells, AC50 (uM) modified / 1000, Tox21_110001=Tox21_200721; viability, 1 nM T3 present, 24 h

Structure (SMILES) | CC50 at 24 h [µM]
c1ccc2cc3c(cc2c1)-c1cccc2cccc-3c12 [Benzo(k)fluoranthene] | > 90

same assay, conditions: rat, gh3-tre-luc cells, AC50 (uM) modified / 1000, Tox21_110001=Tox21_201332; viability, 1 nM T3 present, 24 h

Structure (SMILES) | CC50 at 24 h [µM]
Cc1ccc([N+](=O)[O-])cc1C [1,2-Dimethyl-4-nitrobenzene] | > 90

same assay, conditions: rat, gh3-tre-luc cells, AC50 (uM) modified / 1000, Tox21_110001=Tox21_201546; viability, 1 nM T3 present, 24 h

Structure (SMILES) | CC50 at 24 h [µM]
Cc1ccc(OP(=O)(Oc2ccc(C)cc2)Oc2ccc(C)cc2)cc1 [Tricresyl phosphate] | > 90

same assay, conditions: rat, gh3-tre-luc cells, AC50 (uM) modified / 1000, Tox21_110001=Tox21_202898; viability, 1 nM T3 present, 24 h

Structure (SMILES) | CC50 at 24 h [µM]
CCCCCON=O [Pentyl nitrite] | > 90

same assay, conditions: rat, gh3-tre-luc cells, AC50 (uM) modified / 1000, Tox21_110001=Tox21_300043; viability, 1 nM T3 present, 24 h

Structure (SMILES) | CC50 at 24 h [µM]
OCCCl [2-Chloroethanol] | > 90

same assay, conditions: rat, gh3-tre-luc cells, AC50 (uM) modified / 1000, Tox21_110001=Tox21_300718; viability, 1 nM T3 present, 24 h

Structure (SMILES) | CC50 at 24 h [µM]
CCN(CC)c1nc(C)cc(OP(=S)(OC)OC)n1 [Pirimiphos-methyl] | > 90
